The values that follow come from US20230128972A1, “Anat Inhibitors and Methods of Use Thereof” (Atomwise Inc., priority 2020, published 2023).

For the assay, the target named is T1, aspartate N-acetyltransferase (ANAT) (Homo sapiens, UniProt Q8N9F0).
T1 construct: 6xHis (C); made in house; host or cells: E. coli BL21(DE3)
T1 sequence (Q8N9F0 1-302): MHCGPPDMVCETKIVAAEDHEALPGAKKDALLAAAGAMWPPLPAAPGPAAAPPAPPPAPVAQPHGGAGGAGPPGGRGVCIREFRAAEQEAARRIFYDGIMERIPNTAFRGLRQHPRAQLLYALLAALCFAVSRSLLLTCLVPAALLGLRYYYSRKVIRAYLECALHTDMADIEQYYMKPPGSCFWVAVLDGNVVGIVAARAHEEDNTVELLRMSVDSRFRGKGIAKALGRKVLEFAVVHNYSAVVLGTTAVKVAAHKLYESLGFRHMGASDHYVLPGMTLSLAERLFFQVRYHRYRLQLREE
As to the kind of experiment: ANAT in vitro activity assay (DTNB, coenzyme A production). It is filed as biochemical. Particulars: for Ki: dose-response protocol, competitive inhibition fit, Km for L-aspartate 160 μM; for potency against ANAT: dose-response protocols, in words. The procedure: The experimental assay was based on a custom protocol developed by the Viola lab described previously (see, e.g., Thangavelu et al., 2017, “Design and optimization of aspartate N-acetyltransferase inhibitors for the potential treatment of Canavan disease,” Bioorganic & Medicinal Chemistry, 25(3), pp. 870-885). Each of the purchased compounds was tested in an initial screen at 1 mM, followed by a second screen of the initial inhibitors at 50 μM.
The challenge of solubilizing and purifying the membrane-associated enzyme ANAT has been addressed through the creation of a fusion construct with maltose binding protein (MBP) as a fusion partner, as described previously. Briefly, aspartate ANAT was expressed with an N-terminal MBP tag in E. coli BL21(DE3) cells. A 6×His-tag was inserted at the C-terminal of the enzyme to facilitate purification. 20 ml LB media was grown overnight from a single colony in the presence of kanamycin at a final concentration of 50 μg/ml at 37° C. The overnight culture was then diluted into 2 L LB media and grown with shaking at 37° C. until the OD600 reached 0.6. Isopropyl β-D-thiogalactopyranoside (IPTG) was then added at a final concentration of 0.1 mM for induction, and cell growth continued at 16° C. for 16-20 hours. The cell culture was harvested by centrifugation at 11,000 rpm for 15 min. The cells were then resuspended in binding buffer consisting of 20 mM potassium phosphate, pH 7.4, 300 mM NaCl, 20 mM imidazole, and 10% glycerol. The cells were lysed by adding lysozyme (50 μg/ml of buffer) and DNAse (5 μg/ml of buffer) in an ultrasonic dismembrator, followed by clarification of the cells by centrifugation at 11,000 rpm to remove the insoluble cell debris. The clarified supernatant was loaded onto a Ni-NTA column and eluted with a 20-300 mM imidazole gradient in the binding buffer using an AKTA chromatography system. The fractions containing active enzyme purified from the Ni-NTA column were pooled and loaded onto a dextrin-Sepharose column for further purification. The MBP-ANAT fusion enzyme was eluted from this column by using a 0-10 mM maltose gradient. SDS-PAGE gel was run to confirm the molecular weight and purity of the enzyme.
ANAT activity was measured by monitoring the production of coenzyme A using 5,5′-dithio-bis-[2-nitrobenzoic acid] (DTNB). […] The increasing absorption at 412 nm was monitored for up to 30 min during the reaction. 10% DMSO was maintained in the first screen while 20% DMSO was used in the second screen to dissolve the insoluble or partially soluble compounds in the assay wells.
Ki was calculated using the competitive inhibition routine within the nonlinear regression module of GraphPad Prism 8.3.0 with the following equation: […]
where Km for L-aspartate was set to 160 μM, and [I] and [S] denote the concentrations of the inhibitor and substrate, respectively.

Regarding `Nc1cc(N)nc(SCc2ncc(-c3ccc(F)cc3)o2)n1` [Formula 1, 2-{[5-(p-Fluorophenyl)-1,3-oxazol-2-yl]methylthio}-4,6-pyrimidinediamine], the Ki (as a rule, a measure of affinity in units of concentration, obtained from inhibition or displacement) is 8.2 µM and the “potency against ANAT” value is “low-micromolar”.
For `O=C(OCCSc1ccc([N+](=O)[O-])c2nonc12)c1ccc(Cl)cc1Cl` [Formula 5, 2-(7-Nitro-2,1,3-benzofurazan-4-ylthio)ethyl 2,4-dichlorobenzoate] the same measures were 0.91 µM and “low-micromolar”.
Turning to `Cc1nnc(SCc2nnc(-c3c(-c4ccccc4)noc3C)o2)s1` [Formula 3, 5-(5-Methyl-3-phenyl-4-isoxazolyl)-2-[(5-methyl-1,3,4-thiadiazol-2-ylthio)methyl]-1,3,4-oxadiazole], the Ki came out at 9.1 µM and the “potency against ANAT” value is given as “low-micromolar”.
For `Cc1c(C(=O)O)sc2[nH]c(=O)cc(CSc3nnc(C4CC4)[nH]3)c12` [Formula 4, 4-[(5-Cyclopropyl-4H-1,2,4-triazol-3-ylthio)methyl]-3-methyl-6-oxo-1-thia-7-aza-7H-indene-2-carboxylic acid], affinity was put at a Ki of 4.5 µM and the “potency against ANAT” value is “low-micromolar”.
Turning to `CCOC(=O)c1sc(NC(=O)COC(=O)Cn2c(=O)cnc3ccccc32)cc1C` [Formula 2, Ethyl 3-methyl-5-{2-[(2-oxo-1H-quinoxalin-1-yl)acetoxy]acetylamino}-2-thenoate], the inhibition constant (Ki) amounted to 8.5 µM and the “potency against ANAT” value was “low-micromolar”.
